In BindingDB's records for doi:10.1021/jm00106a035 (University of Maryland, 1991):

Experiments:
[1] = In vitro inhibitory activity towards [3H]cocaine binding to rat striatal tissue
[2] = as above; remark: listed apart in the source

Structure (SMILES)	IC50 [1] [nM]	IC50 [2] [nM]
COC(=O)C1C2CC[C@H](C[C@@H]1OC(=O)Nc1ccccc1)N2C (stereo not given in full)	5600	–
COC(=O)C1C2CC[C@H](C[C@@H]1OC(=O)Nc1cccc(N)c1)N2C (stereo not given in full)	2070	–
COC(=O)C1C2CC[C@H](C[C@@H]1OC(=O)Nc1ccc([N+](=O)[O-])cc1)N2C (stereo not given in full)	1090	–
COC(=O)C1C2CC[C@H](C[C@@H]1OC(=O)Nc1cccc([N+](=O)[O-])c1)N2C (stereo not given in full)	37	–
COC(=O)[C@H]1[C@@H](OC(=O)c2ccccc2)C[C@@H]2CC[C@H]1N2C [Cocaine (-)]	–	65
